From US10370433B2, “Compositions and methods for diagnosis and treatment of cancer” (BIONTECH AG, priority 2015, dated 2019) come the findings set out here.

Molecules are shown by their SMILES. Positions of bridges follow the written chain, without caps; N, C: chain ends. Residues, ends and D or L forms follow the SMILES beside them.

For this assay, the target named is T1, recombinant human Seprase (rhuSeprase) (Homo sapiens, UniProt Q12884).
T1 construct: named pCEP4-IgKappa-huSeprase-coCHO_26-760aa-H6 and used for the generation of recombinant soluble human Seprase (rhuSeprase); mouse Ig kappa-chain V-J2-C secretion signal (N, cleaved yes); made in house; host or cells: FreeStyle CHO-S cells (transient transfection; purified from supernatant by Ni-chelate and SEC)
T1 sequence (Q12884 26-760): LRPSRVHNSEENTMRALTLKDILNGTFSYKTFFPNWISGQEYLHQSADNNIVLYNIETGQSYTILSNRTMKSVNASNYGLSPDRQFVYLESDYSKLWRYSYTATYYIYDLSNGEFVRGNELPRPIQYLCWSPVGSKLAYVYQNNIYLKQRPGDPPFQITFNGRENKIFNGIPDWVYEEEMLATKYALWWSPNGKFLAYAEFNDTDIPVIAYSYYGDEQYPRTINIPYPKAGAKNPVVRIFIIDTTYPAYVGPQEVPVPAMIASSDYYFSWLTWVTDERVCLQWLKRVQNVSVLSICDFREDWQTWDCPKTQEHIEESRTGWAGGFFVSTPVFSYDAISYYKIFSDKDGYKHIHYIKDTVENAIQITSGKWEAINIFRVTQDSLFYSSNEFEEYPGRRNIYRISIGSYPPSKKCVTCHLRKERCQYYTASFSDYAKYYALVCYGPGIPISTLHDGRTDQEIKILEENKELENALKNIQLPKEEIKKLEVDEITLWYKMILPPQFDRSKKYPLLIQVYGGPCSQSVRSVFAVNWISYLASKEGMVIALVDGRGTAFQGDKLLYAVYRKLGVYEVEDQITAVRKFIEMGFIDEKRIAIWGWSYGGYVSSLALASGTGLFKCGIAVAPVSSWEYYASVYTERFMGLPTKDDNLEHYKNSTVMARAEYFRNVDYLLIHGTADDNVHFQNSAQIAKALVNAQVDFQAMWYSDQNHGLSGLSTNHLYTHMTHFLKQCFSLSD
The assay is described as follows: Surface plasmon resonance (Biacore T100) on immobilized rhuSeprase. Type of assay: binding. The note with it: for kon: read-out: ka (1/Ms). A general note: Surface plasmon resonance follows binding to a sensor surface in real time, without labels.

For `CC[C@H](C)[C@@H]1NC(=O)[C@@H]2CSSC[C@H](NC(=O)[C@H](C)NC(=O)CNC(=O)[C@H](CO)NC(=O)CNC(=O)CON=CC(=O)NCCCC[C@H](NC(=O)[C@H](CO)NC(=O)CNC(=O)[C@H](CO)NC(=O)CNC(=O)[C@H](CCCCNC(=O)C=NOCC(=O)NCC(=O)N[C@@H](CO)C(=O)NCC(=O)N[C@@H](C)C(=O)N[C@H]3CSSC[C@@H]4NC(=O)[C@H](CCCNC(=N)N)NC(=O)CNC(=O)[C@@H]5CCCN5C(=O)[C@@H]5CSSC[C@@H](C(=O)NCC(=O)O)NC(=O)[C@H](Cc6ccc(O)cc6)NC(=O)CNC(=O)[C@H](CC(N)=O)NC(=O)CNC(=O)[C@H](CCCNC(=N)N)NC(=O)[C@H](CSSC[C@H](NC(=O)[C@H](CC(=O)O)NC(=O)[C@@H]6CCCN6C(=O)CNC(=O)[C@H](CCCNC(=N)N)NC(=O)CNC(=O)[C@@H]6CCCN6C(=O)[C@H]([C@@H](C)O)NC(=O)[C@H](Cc6c[nH]c7ccccc67)NC(=O)[C@H](CC(N)=O)NC(=O)[C@H](CO)NC(=O)[C@H](Cc6ccc(O)cc6)NC(=O)[C@@H]6CCCN6C3=O)C(=O)N[C@@H](CCCNC(=N)N)C(=O)N[C@@H](CCCNC(=N)N)C(=O)N[C@@H](CC(=O)O)C(=O)N[C@@H](CO)C(=O)N[C@@H](CC(=O)O)C(=O)N5)NC(=O)[C@H]([C@@H](C)CC)NC4=O)NC(=O)[C@H](CO)NC(=O)CNC(=O)[C@H](CO)NC(=O)CNC(=O)[C@H](CCCCNC(=O)C=NOCC(=O)NCC(=O)N[C@@H](CO)C(=O)NCC(=O)N[C@@H](C)C(=O)N[C@H]3CSSC[C@@H]4NC(=O)[C@H](CCCNC(=N)N)NC(=O)CNC(=O)[C@@H]5CCCN5C(=O)[C@@H]5CSSC[C@@H](C(=O)NCC(=O)O)NC(=O)[C@H](Cc6ccc(O)cc6)NC(=O)CNC(=O)[C@H](CC(N)=O)NC(=O)CNC(=O)[C@H](CCCNC(=N)N)NC(=O)[C@H](CSSC[C@H](NC(=O)[C@H](CC(=O)O)NC(=O)[C@@H]6CCCN6C(=O)CNC(=O)[C@H](CCCNC(=N)N)NC(=O)CNC(=O)[C@@H]6CCCN6C(=O)[C@H]([C@@H](C)O)NC(=O)[C@H](Cc6c[nH]c7ccccc67)NC(=O)[C@H](CC(N)=O)NC(=O)[C@H](CO)NC(=O)[C@H](Cc6ccc(O)cc6)NC(=O)[C@@H]6CCCN6C3=O)C(=O)N[C@@H](CCCNC(=N)N)C(=O)N[C@@H](CCCNC(=N)N)C(=O)N[C@@H](CC(=O)O)C(=O)N[C@@H](CO)C(=O)N[C@@H](CC(=O)O)C(=O)N5)NC(=O)[C@H]([C@@H](C)CC)NC4=O)NC(=O)[C@H](CO)NC(=O)CNC(=O)[C@H](CO)NC(=O)CNC(=O)CN3CCN(CC(=O)O)CCN(CC(=O)O)CCN(CC(=O)O)CC3)C(=O)O)C(=O)N3CCC[C@H]3C(=O)N[C@@H](Cc3ccc(O)cc3)C(=O)N[C@@H](CO)C(=O)N[C@@H](CC(N)=O)C(=O)N[C@@H](Cc3c[nH]c4ccccc34)C(=O)N[C@@H]([C@@H](C)O)C(=O)N3CCC[C@H]3C(=O)NCC(=O)N[C@@H](CCCNC(=N)N)C(=O)NCC(=O)N3CCC[C@H]3C(=O)N[C@@H](CC(=O)O)C(=O)N[C@H]3CSSC[C@H](NC1=O)C(=O)N[C@@H](CCCNC(=N)N)C(=O)NCC(=O)N[C@@H](CC(N)=O)C(=O)NCC(=O)N[C@@H](Cc1ccc(O)cc1)C(=O)N[C@H](C(=O)NCC(=O)O)CSSC[C@H](NC(=O)[C@H](CC(=O)O)NC(=O)[C@H](CO)NC(=O)[C@H](CC(=O)O)NC(=O)[C@H](CCCNC(=N)N)NC(=O)[C@H](CCCNC(=N)N)NC3=O)C(=O)N1CCC[C@H]1C(=O)NCC(=O)N[C@@H](CCCNC(=N)N)C(=O)N2` (single isomer, unassigned) [DOTA-(MC-FA-012)3], the “offrate, times slower compared to MC-FA-012” value is “around 530 times” and the kon was found to be 2.11e+07 M⁻¹ s⁻¹.

In the case of `CC(C)C[C@@H]1NC(=O)[C@@H]2CSSC[C@@H](C(=O)NCC(=O)O)NC(=O)[C@H](Cc3ccccc3)NC(=O)CNC(=O)[C@H](CC(N)=O)NC(=O)[C@@H]3CCCN3C(=O)CNC(=O)[C@@H]3CSSC[C@H](NC(=O)[C@H](CC(=O)O)NC(=O)[C@@H]4CCCN4C(=O)CNC(=O)[C@H](CCCNC(=N)N)NC(=O)CNC(=O)[C@@H]4CCCN4C(=O)[C@H]([C@@H](C)O)NC(=O)[C@H](Cc4c[nH]c5ccccc45)NC(=O)[C@H](CC(N)=O)NC(=O)[C@H](CO)NC(=O)[C@H](Cc4ccc(O)cc4)NC(=O)[C@@H]4CCCN4C(=O)[C@@H](NC(=O)[C@H](C)NC(=O)CNC(=O)[C@H](CO)NC(=O)CN)CSSC[C@H](NC(=O)CNC(=O)[C@H](C)NC1=O)C(=O)N[C@@H](C(C)C)C(=O)N3)C(=O)N[C@@H](CO)C(=O)N[C@@H](CCC(N)=O)C(=O)N[C@@H](CC(=O)O)C(=O)N[C@@H](CO)C(=O)N[C@@H](CC(=O)O)C(=O)N2` [ET-FA-012] (H-GSGACPYSNWTPGRGPDCSQDSDCLAGCVCGPNGFCG-OH; disulfide 5-28, 18-30, 24-36; N-terminus and C-terminus assumed), the “kd” value amounted to 0.8528 s⁻¹ and the kon was 608000 M⁻¹ s⁻¹.

Consider `CC[C@H](C)[C@@H]1NC(=O)[C@@H]2CSSC[C@H](NC(=O)[C@H](C)NC(=O)CNC(=O)[C@H](CO)NC(=O)CN)C(=O)N3CCC[C@H]3C(=O)N[C@@H](Cc3ccc(O)cc3)C(=O)N[C@@H](CO)C(=O)N[C@@H](CCCNC(=N)N)C(=O)N[C@@H](Cc3c[nH]c4ccccc34)C(=O)N[C@@H](CCSC)C(=O)N3CCC[C@H]3C(=O)NCC(=O)N[C@@H](CCCNC(=N)N)C(=O)NCC(=O)N3CCC[C@H]3C(=O)N[C@@H](CO)C(=O)N[C@H]3CSSC[C@H](NC1=O)C(=O)N[C@@H](CCCNC(=N)N)C(=O)NCC(=O)N[C@@H](CC(N)=O)C(=O)NCC(=O)N[C@@H](Cc1ccc(O)cc1)C(=O)N[C@H](C(=O)NCC(=O)O)CSSC[C@H](NC(=O)[C@H](CC(=O)O)NC(=O)[C@H](CO)NC(=O)[C@H](CC(=O)O)NC(=O)[C@H](CCCNC(=N)N)NC(=O)[C@H](CCCNC(=N)N)NC3=O)C(=O)N1CCC[C@H]1C(=O)NCC(=O)N[C@@H](CCCNC(=N)N)C(=O)N2` [FA7-A05] (H-GSGACPYSRWMPGRGPSCRRDSDCPGRCICRGNGYCG-OH; disulfide 5-28, 18-30, 24-36; N-terminus and C-terminus assumed), for which the “kd” value amounted to 0.05035 s⁻¹ and the kon came out at 246000 M⁻¹ s⁻¹.

Turning to `CC[C@H](C)[C@@H]1NC(=O)[C@@H]2CSSC[C@H](NC(=O)[C@H](C)NC(=O)CNC(=O)[C@H](CO)NC(=O)CN)C(=O)N3CCC[C@H]3C(=O)N[C@@H](Cc3ccc(O)cc3)C(=O)N[C@@H]([C@@H](C)O)C(=O)N[C@@H](CC(N)=O)C(=O)N[C@@H](Cc3c[nH]c4ccccc34)C(=O)N[C@@H](CCCNC(=N)N)C(=O)N3CCC[C@H]3C(=O)NCC(=O)N[C@@H](CCCNC(=N)N)C(=O)NCC(=O)N3CCC[C@H]3C(=O)N[C@@H](C)C(=O)N[C@H]3CSSC[C@H](NC1=O)C(=O)N[C@@H](CCCNC(=N)N)C(=O)NCC(=O)N[C@@H](CC(N)=O)C(=O)NCC(=O)N[C@@H](Cc1ccc(O)cc1)C(=O)N[C@H](C(=O)NCC(=O)O)CSSC[C@H](NC(=O)[C@H](CC(=O)O)NC(=O)[C@H](CO)NC(=O)[C@H](CC(=O)O)NC(=O)[C@H](CCCNC(=N)N)NC(=O)[C@H](CCCNC(=N)N)NC3=O)C(=O)N1CCC[C@H]1C(=O)NCC(=O)N[C@@H](CCCNC(=N)N)C(=O)N2` [FA8-C09] (H-GSGACPYTNWRPGRGPACRRDSDCPGRCICRGNGYCG-OH; disulfide 5-28, 18-30, 24-36; N-terminus and C-terminus assumed), the “kd” value came out at 2.935 s⁻¹ and the kon amounted to 9.92e+06 M⁻¹ s⁻¹.

Take `CC[C@H](C)[C@@H]1NC(=O)[C@@H]2CSSC[C@H](NC(=O)[C@H](C)NC(=O)CNC(=O)[C@H](CO)NC(=O)CN)C(=O)N3CCC[C@H]3C(=O)N[C@@H](Cc3ccc(O)cc3)C(=O)N[C@@H]([C@@H](C)O)C(=O)N[C@@H](CCCNC(=N)N)C(=O)N[C@@H](Cc3c[nH]c4ccccc34)C(=O)N[C@@H](C)C(=O)N[C@@H](C(C)C)C(=O)NCC(=O)N[C@@H](CCCNC(=N)N)C(=O)NCC(=O)N3CCC[C@H]3C(=O)N[C@@H](CC(=O)O)C(=O)N[C@H]3CSSC[C@H](NC1=O)C(=O)N[C@@H](CCCNC(=N)N)C(=O)NCC(=O)N[C@@H](CC(N)=O)C(=O)NCC(=O)N[C@@H](Cc1ccc(O)cc1)C(=O)N[C@H](C(=O)NCC(=O)O)CSSC[C@H](NC(=O)[C@H](CC(=O)O)NC(=O)[C@H](CO)NC(=O)[C@H](CC(=O)O)NC(=O)[C@H](CCCNC(=N)N)NC(=O)[C@H](CCCNC(=N)N)NC3=O)C(=O)N1CCC[C@H]1C(=O)NCC(=O)N[C@@H](CCCNC(=N)N)C(=O)N2` [FA8-D03] (H-GSGACPYTRWAVGRGPDCRRDSDCPGRCICRGNGYCG-OH; disulfide 5-28, 18-30, 24-36; N-terminus and C-terminus assumed): the “kd” value was 0.1381 s⁻¹ and the kon came to 939000 M⁻¹ s⁻¹.
